The source of these data is patent US10787442B2, “Modulators of indoleamine 2,3-dioxygenase” (GLAXOSMITHKLINE INTELLECTUAL PROPERTY DEVELOPMENT LIMITED, priority 2016, dated 2020).

The structures appear in SMILES notation. Where two headings read alike, the source gives them in different places.

Data set [1] deals with human peripheral blood mononuclear cells (PBMC). As to the kind of experiment: PBMC cytotoxicity assay (CellTiter-Glo). In kind it is cell-based. Particulars: cytotoxicity in stimulated PBMC, recorded as pCC50.
For data set [2], the target named is indoleamine 2, 3-dioxygenase (IDO1) (Homo sapiens, UniProt P14902). As to the kind of experiment: IDO1 HeLa RapidFire MS Assay (kynurenine by mass spectrometry). Type of data set: cell-based. Particulars: HeLa cells stimulated with IFN-γ, 2 days; recorded as pIC50; read-out: IDO1 HeLa PXC50 (converted). On the procedure: IDO1 HeLa RapidFire MS Assay
Sequence of indoleamine 2, 3-dioxygenase (IDO1) (P14902 whole entry): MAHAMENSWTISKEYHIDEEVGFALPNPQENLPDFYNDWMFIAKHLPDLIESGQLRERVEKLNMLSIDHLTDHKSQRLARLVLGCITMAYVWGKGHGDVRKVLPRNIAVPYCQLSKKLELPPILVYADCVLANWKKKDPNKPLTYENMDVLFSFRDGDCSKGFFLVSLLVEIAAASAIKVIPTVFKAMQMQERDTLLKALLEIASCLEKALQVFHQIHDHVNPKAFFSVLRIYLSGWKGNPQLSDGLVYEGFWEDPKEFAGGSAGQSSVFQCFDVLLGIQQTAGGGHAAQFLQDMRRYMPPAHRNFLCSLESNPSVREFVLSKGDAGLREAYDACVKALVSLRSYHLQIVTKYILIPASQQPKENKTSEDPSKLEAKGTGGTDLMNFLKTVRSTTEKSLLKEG
(§1) Compounds of the present invention were tested via high-throughput cellular assays utilizing detection of kynurenine via mass spectrometry and cytotoxicity as end-points. […] Compounds with IDO1 inhibitory properties decreased the amount of kynurenine produced by the cells via the tryptophan catabolic pathway. Cellular toxicity due to the effect of compound treatment was measured using CellTiter-Glo® reagent (CTG) (Promega Corporation, Madison, Wis.), which is based on luminescent detection of ATP, an indicator of metabolically active cells.
(§2) In preparation for the assays, test compounds were serially diluted 3-fold in DMSO from a typical top concentration of 1 mM or 5 mM and plated at 0.5 μL in 384-well, polystyrene, clear bottom, tissue culture treated plates with lids (Greiner Bio-One, Kremsmünster, Austria) to generate 11-point dose response curves. Low control wells (0% kynurenine or 100% cytotoxicity) contained either 0.5 μL of DMSO in the presence of unstimulated (−IFN-γ) HeLa cells for the mass spectrometry assay or 0.5 μL of DMSO in the absence of cells for the cytotoxicity assay, and high control wells (100% kynurenine or 0% cytotoxicity) contained 0.5 μL of DMSO in the presence of stimulated (+IFN-γ) HeLa cells for both the mass spectrometry and cytotoxicity assays.
(§3) Frozen stocks of HeLa cells were washed and recovered in DMEM high glucose medium with HEPES (Thermo Fisher Scientific, Inc., Waltham, Mass.) supplemented with 10% v/v certified fetal bovine serum (FBS) (Thermo Fisher Scientific, Inc., Waltham, Mass.), and 1× penicillin-streptomycin antibiotic solution (Thermo Fisher Scientific, Inc., Waltham, Mass.). The cells were diluted to 100,000 cells/mL in the supplemented DMEM medium. 50 μL of either the cell suspension, for the mass spectrometry assay, or medium alone, for the cytotoxicity assay, were added to the low control wells, on the previously prepared 384-well compound plates, resulting in 5,000 cells/well or 0 cells/well respectively. IFN-γ was added to the remaining cell suspension at a final concentration of 10 nM, and 50 μL of the stimulated cells were added to all remaining wells on the 384-well compound plates. The plates, with lids, were then placed in a 37° C., 5% CO2 humidified incubator for 2 days.
(§4) Following incubation, the 384-well plates were removed from the incubator and allowed to equilibrate to room temperature for 30 minutes. For the cytotoxicity assay, CellTiter-Glo® was prepared according to the manufacturer's instructions, and 10 μL were added to each plate well. After a twenty minute incubation at room temperature, luminescence was read on an EnVision® Multilabel Reader (PerkinElmer Inc., Waltham, Mass.). For the mass spectrometry assay, 10 μL of supernatant from each well of the compound-treated plates were added to 40 μL of acetonitrile, containing 10 μM of an internal standard for normalization, in 384-well, polypropylene, V-bottom plates (Greiner Bio-One, Kremsmünster, Austria) to extract the organic analytes. Following centrifugation at 2000 rpm for 10 minutes, 10 μL from each well of the acetonitrile extraction plates were added to 90 μL of sterile, distilled H2O in 384-well, polypropylene, V-bottom plates for analysis of kynurenine and the internal standard on the RapidFire 300 (Agilent Technologies, Santa Clara, Calif.) and 4000 QTRAP MS (SCIEX, Framingham, Mass.). MS data were integrated using Agilent Technologies' RapidFire Integrator software, and data were normalized for analysis as a ratio of kynurenine to the internal standard.

Data set [3] deals with human epithelial HeLa cells. As to the kind of experiment: HeLa cytotoxicity assay (CellTiter-Glo). In kind it is cell-based. Particulars: cytotoxicity in stimulated HeLa cells, recorded as pCC50. On the procedure:
as §1, §2, §3, §4

The target in another data set is T1, ePL tagged IDO1 (Homo sapiens, UniProt P14902).
T1 construct: expressed in transfected cells; host or cells: HeLa cells transduced with BacMam virus
T1 sequence (P14902 whole entry): as above
As to the kind of experiment: CETSA (Cellular Thermal Shifting assay). In kind it is binding. Particulars: Hela cells, 3 hours at 37° C., heated at 53° C. for 3 min. On the procedure:
Cellular Thermal Shifting assays were used to directly monitor the ligand binding to target proteins in cells. Hela cells were transduced with BacMam virus expressing ePL tagged IDO1 overnight. The cells were then plated over the compounds for 3 hours at 37° C. in cell culture medium containing 1% FBS. The plates were then sealed and heated at 53° C. for 3 min. InCell Hunter reagents were added and luminescence was read in 90 min.

In another data set the test system is PAN02 pancreatic cells. Particulars: cited from earlier work.
The mark [4] stands for this setting: first value, read-out: pXC50_1 (converted).
The mark [5] stands for this setting: second value, read-out: pXC50_2 (converted).

Turning to `CC(C)CN(c1ncc([C@H](C)CC(=O)O)cc1Nc1nc(C(F)(F)F)ns1)C1CCOCC1` [Example 3, (R)-3-(6-(isobutyl(tetrahydro-2H-pyran-4-yl)amino)-5-((3-(trifluoromethyl)-1,2,4-thiadiazol-5-yl)amino)pyridin-3-yl)butanoic acid], the “PBMC_TOX PXC50” value in data set [1] is given as less than 5.0. Besides, the IC50 in data set [2] was 10 nM. In data set [3], this compound came in with an HELA_IDO1_TOX_PXC50 of less than 5. Besides, the figures for the EC50 at ePL tagged IDO1 (setting [4]) and on ePL tagged IDO1 (setting [5]) were 162 nM and 186 nM, respectively.

Take `CC(C)CN(c1ncc([C@H](C)CC(=O)O)cc1Nc1ccc(C#N)cn1)C1CCOCC1` [Example 57, (3R)-3-{5-[(5-cyanopyridin-2-yl)amino]-6-[(2-methylpropyl)(oxan-4-yl)amino]pyridin-3-yl}butanoic acid]: the “PBMC_TOX PXC50” value in data set [1] is less than 5.0. Besides, the EC50 at ePL tagged IDO1 (setting [4]) was 5010 nM; on ePL tagged IDO1 (setting [5]) it was 3090 nM.

On to `NS(=O)(=O)NCCNc1nonc1C(=NO)Nc1ccc(F)c(Br)c1` [INCB204360], for which, in the data set with PAN02 pancreatic cells (immune-deficient mice), the “effect against the same tumor” value is “without effect”. The “inhibition of tumor growth” value with PAN02 pancreatic cells (immunocompetent mice, orally dosed) is “significant dose-dependent inhibition of tumor growth”.
